Among the data in paper PMC10179352, “Clostridia and Enteroviruses as Synergistic Triggers of Type 1 Diabetes Mellitus” (International Journal of Molecular Sciences, 2023) are Kd values, retold here.

One assay has as its target INS (Homo sapiens, UniProt P01308). The conditions noted are these: ultraviolet spectrometry; derived from previous study; read-out: Binding Constants, INS; cited from earlier work. The text has this: Table 1 Summary of ultraviolet spectrometry experiments concerning binding of T cell receptor sequences expanded in type 1 diabetic patients (TCR DIA) to a COX peptide (Cox Pep) that mimics the INS receptor (Ins Rec), two Clostridium peptides (Clost Pep) that mimic INS, two INS receptor peptides identified by their amino acid sequence numbers, and INS itself. Gluc = glucagon-like sequence; GR = gl | column: INS

A further assay has as its target Ins Rec 897–915. The conditions noted are these: ultraviolet spectrometry; derived from previous study; read-out: Binding Constants, Ins Rec 897–915; cited from earlier work. The source says:
Table 1 Summary of ultraviolet spectrometry experiments concerning binding of T cell receptor sequences expanded in type 1 diabetic patients (TCR DIA) to a COX peptide (Cox Pep) that mimics the INS receptor (Ins Rec), two Clostridium peptides (Clost Pep) that mimic INS, two INS receptor peptides identified by their amino acid sequence numbers, and INS itself. Gluc = glucagon-like sequence; GR = gl | column: Ins Rec 897–915

Another assay addresses Ins Rec 105–118. As to conditions: ultraviolet spectrometry; derived from previous study; read-out: Binding Constants, Ins Rec 105–118; cited from earlier work. The text has this:
Table 1 Summary of ultraviolet spectrometry experiments concerning binding of T cell receptor sequences expanded in type 1 diabetic patients (TCR DIA) to a COX peptide (Cox Pep) that mimics the INS receptor (Ins Rec), two Clostridium peptides (Clost Pep) that mimic INS, two INS receptor peptides identified by their amino acid sequence numbers, and INS itself. Gluc = glucagon-like sequence; GR = gl | column: Ins Rec 105–118

Assay [1] concerns the target Cox Pep #1 (COX peptide that mimics the INS receptor). The assay can be described thus: Ultraviolet spectrometry peptide binding. As to conditions: estimated from inflection points of the curves, read-out: Binding Constants, Cox Pep #1. The text has this:
(§1) Because some COX antigens mimic INSR sequences and some Clostridia antigens mimic INS, we synthesized several microbial peptide sequences that mimicked these human proteins and used ultraviolet spectroscopy to determine whether they bound to each other, as would be the case if they were complementary antigens. Figure 12 provides the peptide sequences and their similarities to either INS or INSR. Clostridium similarities to the INS A chain were specifically chosen because the role of the A chain in the induction of T1DM is generally ignored in favor of the B chain.
(§2) Previous investigators have sequenced the T cell receptor (TCR) sequences that are expanded in T1DM patients with particular specificities for INS or INSR [61, 62]. […] TCR 1, 2, and 4 were from one patient; TCR 8, 9, and 10 were from a second patient; and TCR K2.4, K2.12, and K2.16 were from a third. Ultraviolet light spectrometry was used to determine whether each TCR sequence recognized the COX and Clostridia peptides used in the previous set of experiments (Figure 12). The results are shown in Table 1, Figure 13, and Appendix F.

The target in another assay is Clost Pep #2. The assay can be described thus: Ultraviolet spectrometry peptide binding. The conditions noted are these: estimated from inflection points of the curves, read-out: Binding Constants, Clost Pep #2. The arrangement: species or system Clostridium.
Source text: as §1, §2

A further assay addresses Clost Pep #3. The assay can be described thus: Ultraviolet spectrometry peptide binding. The conditions noted are these: estimated from inflection points of the curves, read-out: Binding Constants, Clost Pep #3. Further details: species or system Clostridium.
Source text: as §1, §2

Sequence of INS (P01308 25-54): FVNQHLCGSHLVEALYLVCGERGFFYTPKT
Sequence of INS (P01308 90-110): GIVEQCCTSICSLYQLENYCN

With `CC[C@H](C)[C@H](NC(=O)[C@@H](NC(=O)[C@H](C)NC(=O)[C@H](CC(C)C)NC(=O)[C@H](CO)NC(=O)[C@H](CO)NC(=O)[C@H](C)NC(=O)[C@@H](N)CS)C(C)C)C(=O)N[C@@H](CCCNC(=N)N)C(=O)N[C@H](C(=O)O)[C@@H](C)O` (single isomer, unassigned) [TCR DIA 2, K2.16], the Kd on INS is above 1000 µM.
On to CASSIYLCSVEATRAD [TCR DIA 1], for which the Kd is 80 µM with INS; 300 µM at Ins Rec 897–915; 125 µM on Ins Rec 105–118; 400 µM in assay [1]; 100 µM on Clost Pep #2; 100 µM on Clost Pep #3.
In the case of `CC(C)C[C@H](NC(=O)[C@H](C)NC(=O)[C@H](CO)NC(=O)[C@@H](N)CC(=O)O)C(=O)N[C@@H](Cc1ccc(O)cc1)C(=O)N[C@@H](CC(C)C)C(=O)N[C@@H](CS)C(=O)N[C@@H](C)C(=O)N[C@@H](CO)C(=O)N[C@@H](CO)C(=O)N[C@@H](CC(C)C)C(=O)NCC(=O)O` (single isomer, unassigned) [TCR DIA 4,8,9], the Kd at INS is above 1000 µM.
